Results taken from US20130157954A1, “METHODS FOR TREATMENT OR PROPHYLAXIS OF KIDNEY OR LIVER DYSFUNCTION” (NPS PHARMACEUTICALS, INC., priority 2010, published 2013).

Assay: Example 1: kidney biomarkers (urea nitrogen, creatinine, GFR) in short bowel syndrome patients, every four weeks for 24 weeks; also sorted by >5% change from baseline
Assay type: in vivo, Human
Design: CREATININE (RATE BLANKED) Change from Baseline Median / GFR Median / GFR Change from Baseline Median / UREA NITROGEN Median / UREA NITROGEN Change from Baseline Median: unit not given here
Conditions: for CREATININE (RATE BLANKED) change from baseline <−5%, number of patients / CREATININE (RATE BLANKED) change from baseline <−5%, percent of patients / CREATININE (RATE BLANKED) change from baseline >5%, number of patients / CREATININE (RATE BLANKED) change from baseline >5%, percent of patients / CREATININE (RATE BLANKED) change from baseline −5% <= and <=5%, number of patients / CREATININE (RATE BLANKED) change from baseline −5% <= and <=5%, percent of patients / GFR change from baseline <−5%, number of patients / GFR change from baseline <−5%, percent of patients / GFR change from baseline >5%, number of patients / GFR change from baseline >5%, percent of patients / GFR change from baseline −5% <= and <=5%, number of patients / GFR change from baseline −5% <= and <=5%, percent of patients / UREA NITROGEN change from baseline <−5%, number of patients / UREA NITROGEN change from baseline <−5%, percent of patients / UREA NITROGEN change from baseline >5%, number of patients / UREA NITROGEN change from baseline >5%, percent of patients / UREA NITROGEN change from baseline −5% <= and <=5%, number of patients / UREA NITROGEN change from baseline −5% <= and <=5%, percent of patients: 0.1 mg/kg/day
Procedure: Human patients with short bowel syndrome were divided into three groups: a control group (16 total individuals) to receive placebo, an experimental group (35 total individuals) to receive teduglutide at 0.05 mg/kg/day throughout the study, and an experimental group (32 total individuals) to receive teduglutide at 0.1 mg/kg/day throughout the study. Patients were treated by subcutaneous injection of placebo or the appropriate dose of teduglutide. As individuals with short bowel syndrome are likely to experience associated liver and kidney disease, known biomarkers of liver and kidney function were monitored every four weeks, for 24 weeks. The liver biomarkers tested included total bilirubin, ALT and AST and ALP. The kidney biomarkers tested included urea nitrogen, creatinine and GFR. Before administration of placebo or teduglutide, diagnostic biomarker levels were tested to establish a baseline for each individual.
To visualize the effect of GLP-2 on the levels of the diagnostic biomarkers, the average change from baseline was calculated for the placebo and teduglutide treated groups for each visit after a baseline was established. The average change from baseline of each group is depicted in FIGS. 1-7. The numerical figures for each diagnostic biomarker at each time point are depicted in Table 1.
The raw data for this sorting is reproduced in Table 2 below.

## CC[C@H](C)[C@H](NC(=O)[C@H](Cc1ccccc1)NC(=O)[C@H](CC(=O)O)NC(=O)[C@H](CCCNC(=N)N)NC(=O)[C@H](C)NC(=O)[C@H](C)NC(=O)[C@H](CC(C)C)NC(=O)[C@H](CC(N)=O)NC(=O)[C@H](CC(=O)O)NC(=O)[C@H](CC(C)C)NC(=O)[C@@H](NC(=O)[C@@H](NC(=O)[C@H](CC(N)=O)NC(=O)[C@H](CCSC)NC(=O)[C@H](CCC(=O)O)NC(=O)[C@H](CC(=O)O)NC(=O)[C@H](CO)NC(=O)[C@H](Cc1ccccc1)NC(=O)[C@H](CO)NC(=O)CNC(=O)[C@H](CC(=O)O)NC(=O)CNC(=O)[C@@H](N)Cc1c[nH]cn1)[C@@H](C)O)[C@@H](C)CC)C(=O)N[C@@H](CC(N)=O)C(=O)N[C@@H](Cc1c[nH]c2ccccc12)C(=O)N[C@@H](CC(C)C)C(=O)N[C@H](C(=O)N[C@@H](CCC(N)=O)C(=O)N[C@H](C(=O)N[C@@H](CCCCN)C(=O)N[C@H](C(=O)N[C@H](C(=O)N[C@@H](CC(=O)O)C(=O)O)[C@@H](C)O)[C@@H](C)CC)[C@@H](C)O)[C@@H](C)CC [teduglutide]
0.10 mg/kg/day, DW4
  CREATININE (RATE BLANKED) Change from Baseline Median: −0.5
  CREATININE (RATE BLANKED) Median: 83 µmol/L
  GFR Change from Baseline Median: 3.1
  UREA NITROGEN Change from Baseline Median: 0.2
  UREA NITROGEN Median: 6.3
0.10 mg/kg/day, DW8
  CREATININE (RATE BLANKED) Change from Baseline Median: 0.0
  CREATININE (RATE BLANKED) Median: 86 µmol/L
  GFR Change from Baseline Median: 0.2
  UREA NITROGEN Change from Baseline Median: 0.1
  UREA NITROGEN Median: 6.4
0.10 mg/kg/day, DW12
  CREATININE (RATE BLANKED) Change from Baseline Median: 6.5
  GFR Change from Baseline Median: −0.5
  UREA NITROGEN Change from Baseline Median: 0.0
  UREA NITROGEN Median: 5.9
0.10 mg/kg/day, DW16
  CREATININE (RATE BLANKED) Change from Baseline Median: 0.0
  GFR Change from Baseline Median: 1.1
  UREA NITROGEN Change from Baseline Median: 0.0
  UREA NITROGEN Median: 6.1
0.10 mg/kg/day, DW20
  CREATININE (RATE BLANKED) Change from Baseline Median: 0.0
  CREATININE (RATE BLANKED) Median: 88 µmol/L
  GFR Change from Baseline Median: 1.5
  UREA NITROGEN Change from Baseline Mean (SD): −0.0 (1.60)
  UREA NITROGEN Change from Baseline Median: −0.1
  UREA NITROGEN Median: 6.0
0.10 mg/kg/day, DW 24
  CREATININE (RATE BLANKED) Change from Baseline Median: 0.0
  CREATININE (RATE BLANKED) Median: 81 µmol/L
  GFR Change from Baseline Median: 2.3
  UREA NITROGEN Change from Baseline Median: 0.3
  UREA NITROGEN Median: 5.9
Week 4
  CREATININE (RATE BLANKED) change from baseline <−5%, number of patients: 12
  CREATININE (RATE BLANKED) change from baseline <−5%, percent of patients: (37.5%)
  CREATININE (RATE BLANKED) change from baseline >5%, number of patients: 7
  CREATININE (RATE BLANKED) change from baseline >5%, percent of patients: (21.9%)
  CREATININE (RATE BLANKED) change from baseline −5% <= and <=5%, number of patients: 13
  CREATININE (RATE BLANKED) change from baseline −5% <= and <=5%, percent of patients: (40.6%)
  GFR change from baseline <−5%, number of patients: 7
  GFR change from baseline <−5%, percent of patients: (21.9%)
  GFR change from baseline >5%, number of patients: 14
  GFR change from baseline >5%, percent of patients: (43.8%)
  GFR change from baseline −5% <= and <=5%, number of patients: 11
  GFR change from baseline −5% <= and <=5%, percent of patients: (34.4%)
  UREA NITROGEN change from baseline <−5%, number of patients: 10
  UREA NITROGEN change from baseline <−5%, percent of patients: (31.3%)
  UREA NITROGEN change from baseline >5%, number of patients: 15
  UREA NITROGEN change from baseline >5%, percent of patients: (46.9%)
  UREA NITROGEN change from baseline −5% <= and <=5%, number of patients: 7
  UREA NITROGEN change from baseline −5% <= and <=5%, percent of patients: (21.9%)
Week 8
  CREATININE (RATE BLANKED) change from baseline <−5%, number of patients: 8
  CREATININE (RATE BLANKED) change from baseline <−5%, percent of patients: (25.0%)
  CREATININE (RATE BLANKED) change from baseline >5%, number of patients: 13
  CREATININE (RATE BLANKED) change from baseline >5%, percent of patients: (40.6%)
  CREATININE (RATE BLANKED) change from baseline −5% <= and <=5%, number of patients: 10
  CREATININE (RATE BLANKED) change from baseline −5% <= and <=5%, percent of patients: (31.3%)
  GFR change from baseline <−5%, number of patients: 9
  GFR change from baseline <−5%, percent of patients: (28.1%)
  GFR change from baseline >5%, number of patients: 9
  GFR change from baseline >5%, percent of patients: (28.1%)
  GFR change from baseline −5% <= and <=5%, number of patients: 13
  GFR change from baseline −5% <= and <=5%, percent of patients: (40.6%)
  UREA NITROGEN change from baseline <−5%, number of patients: 9
  UREA NITROGEN change from baseline <−5%, percent of patients: (28.1%)
  UREA NITROGEN change from baseline >5%, number of patients: 15
  UREA NITROGEN change from baseline >5%, percent of patients: (46.9%)
  UREA NITROGEN change from baseline −5% <= and <=5%, number of patients: 7
  UREA NITROGEN change from baseline −5% <= and <=5%, percent of patients: (21.9%)
Week 12
  CREATININE (RATE BLANKED) change from baseline <−5%, number of patients: 9
  CREATININE (RATE BLANKED) change from baseline <−5%, percent of patients: (28.1%)
  CREATININE (RATE BLANKED) change from baseline >5%, number of patients: 17
  CREATININE (RATE BLANKED) change from baseline >5%, percent of patients: (53.1%)
